The experiment has as its target HCV NS3/4A wild type (wt) (Hepatitis C virus genotype 1b (isolate BK) (HCV), UniProt P26663). Put plainly: Mass spectrometric analysis (MALDI-TOF) of intact protease incubated with test compound. The experiment is classed as binding. The following applies: 10-fold excess of compound. As for the experimental part: Mass spectrometric analysis of HCV wild type or HCV variant C159S in the presence of test compound is performed. 100 pmols of HCV wild type (Bioenza CA) is incubated with test compound for 1 hr and 3 hrs at 10-fold access of test compound to protein. 1 ul aliquots of the samples (total volume of 4.24 ul) are diluted with 10 ul of 0.1% TFA prior to micro C4 ZipTipping directly onto the MALDI target using Sinapinic acid as the desorption matrix (10 mg/mL in 0.1% TFA:Acetonitrile 50:50). Analyses are performed on a Shimadzu Biotech Axima TOF^2 (Shimadzu Instruments) matrix-assisted-laser desorption/ionization Time-of-Flight (MALDI-TOF) mass spectrometer. The same procedure is carried out on 100 pmols of HCV C159S mutant of HCV protease for 3 hrs at 10-fold excess of test compound to protein.
2 ul aliquots of the samples were diluted with 10 ul of 0.1% TFA prior to micro C4 ZipTipping directly onto the MALDI target using Sinapinic acid as the desorption matrix (10 mg/ml in 0.1% TFA:Acetonitrile 50:50). For intact protein mass measurement the instrument was set in linear mode using a pulsed extraction setting of 24,500 and apomyoglobin as the standard to calibrate the instrument.
2 ul aliquots of the samples were diluted with 10 ul of 0.1% TFA prior to micro […] ZipTipping directly onto the MALDI target using Sinapinic acid as the desorption matrix (10 mg/ml in 0.1% TFA:Acetonitrile 20:80). For intact protein mass measurement the instrument was set in linear mode using a pulsed extraction setting of 24,500 and apomyoglobin as the standard to calibrate the instrument.

As for `C=CC(=O)NC[C@H](NC(=O)[C@@H](NC(=O)c1cnccn1)C1CCCCC1)C(=O)N1C[C@@H]2CCC[C@@H]2[C@H]1C(=O)N[C@@H](CCC)C(=O)C(=O)NC1CC1` [Compound I-11, (1S,3aR,6aS)-2-((S)-3-acrylamido-2-((S)-2-cyclohexyl-2-(pyrazine-2-carboxamido)acetamido)propanoyl)-N—((S)-1-(cyclopropylamino)-1,2-dioxohexan-3-yl)octahydrocyclopenta[c]pyrrole-1-carboxamide], for the setting “3 hr incubation”, the “covalent modification of protein (reaction with compound, mass spectrometry)” value is given as “reacted significantly to produce a new species” and the “mass increase of new protein species versus protein with no compound” value is recorded as “approximately 703 Da”.

For the compound `CCC[C@H](NC(=O)[C@@H]1[C@H]2CCC[C@H]2CN1C(=O)[C@@H](NC(=O)[C@@H](NC(=O)c1cnccn1)C1CCCCC1)C(C)(C)C)C(=O)C(=O)NC1CC1` [telaprevir, reference compound], for the setting “1 hr incubation”, the “covalent modification of protein (reaction with compound, mass spectrometry)” value is listed as “no reaction”.

For the origin of these results see patent US9422333B2, “HCV protease inhibitors and uses thereof” (Celgene Avilomics Research, Inc., priority 2008, dated 2016).
